Results: the OligoGym collection
Where “and” joins values, the source holds several entries; their conditions need not be identical. Identical values can stand only once. After the bases stand the sugars from the 5' end (letter, count) and the backbone: PS all phosphorothioate, else s phosphorothioate and o phosphodiester by linkage. Methylation of C is not given here. e = 2'-O-(2-methoxyethyl) (MOE); k = constrained ethyl (cEt); d = 2'-deoxy (DNA)

target: IRF4; settings: ASO, MM.1R, 0.0625 µM

Row | Sequence | target mRNA inhibition
1 | TCTGTATAGTTCTCAA (sugars k3 d10 k3, PS) | -2% and 0%
2 | TTTCATATTTGGAGCC (sugars k3 d10 k3, PS) | -3% and 21%
3 | TGGAGATACTTGTACT (sugars k3 d10 k3, PS) | -15%

same assay, conditions: ASO, MM.1R, 0.074 µM

Row | Sequence | target mRNA inhibition
4 | CATTTACTGTTACCGA (sugars k3 d10 k3, PS) | -14%

same assay, conditions: ASO, MM.1R, 0.222 µM

Row | Sequence | target mRNA inhibition
5 | CATTTACTGTTACCGA (sugars k3 d10 k3, PS) | 0%

same assay, conditions: ASO, MM.1R, 0.25 µM

Row | Sequence | target mRNA inhibition
6 | TCTGTATAGTTCTCAA (sugars k3 d10 k3, PS) | 16% and 26%
7 | TTTCATATTTGGAGCC (sugars k3 d10 k3, PS) | 10% and 18%
8 | TGGAGATACTTGTACT (sugars k3 d10 k3, PS) | -7%

same assay, conditions: ASO, MM.1R, 0.666 µM

Row | Sequence | target mRNA inhibition
9 | CATTTACTGTTACCGA (sugars k3 d10 k3, PS) | -9%

same assay, conditions: ASO, MM.1R, 1 µM

Row | Sequence | target mRNA inhibition
10 | GACAGTGACTTGCATC (sugars kkdddddddddekeke, PS) | 30%
11 | AGTGATGTCAGGTTTT (sugars k2 d9 e3 k2, PS) | 25%
12 | GACACTTTTAGAGAGG (sugars kkkdddddddddkeke, PS) | 24%
13 | TCTGTATAGTTCTCAA (sugars k3 d10 k3, PS) | 42% and 40%
14 | TAGTATGAGAAACGGC (sugars k3 d9 k3 e1, PS) | 48%
15 | AGAGGTGCCTTCTTTA (sugars k3 d10 k3, PS) | 18%
16 | TCTCCAAAGCATAGAG (sugars k3 d10 k3, PS) | -8%
17 | TAGGTAAGATCTCCAT (sugars k3 d10 k3, PS) | 35% and 33%
18 | AAGCTTGATAAAGGCT (sugars e1 k2 d9 k2 e2, PS) | -1%
19 | CCGCAGCCCAAAGGCT (sugars k3 d10 k3, PS) | 4%
20 | TTTCATATTTGGAGCC (sugars k3 d10 k3, PS) | 25% and 45%
21 | ACTGTTACCGATGCTT (sugars kkdddddddddkdkdk, PS) | 22% and 31%
22 | TGAGATATTCCTCTCA (sugars k3 d10 k3, PS) | 18%
23 | TGTGCTTGCCAAGCCT (sugars kddddddddddkekek, PS) | -1% and 3%
24 | TGGTTGGCTGGTCTTT (sugars kkdddddddddekeke, PS) | 60%
25 | TACTGCTTGAGGTTTT (sugars kdddddddddkekeke, PS) | 14%
26 | GCTGAACCCCACAGGA (sugars k3 d10 k3, PS) | 0%
27 | AGAGACGCGGTGAGAG (sugars k3 d10 k3, PS) | -20%
28 | CATATTCCAACAGGCG (sugars k3 d10 k3, PS) | -1%
29 | CGTGTGCTTGCCAAGC (sugars kddddddddddkekek, PS) | 30% and 32%
30 | TGGAGATACTTGTACT (sugars k3 d10 k3, PS) | 42% and 21%
31 | GACAGTGACTTGCATC (sugars k3 d10 k3, PS) | 24%
32 | GCACATCAATGTTTTA (sugars kkdddddddddkdkdk, PS) | 11% and 7%
33 | TGATGTGATAGCTGAG (sugars kkdddddddddkdkdk, PS) | 14%
34 | CAGTGACTTGCATCCA (sugars kkdddddddddekeke, PS) | 34%
35 | GAGTTGTACAGGACAG (sugars k3 d10 k3, PS) | 51% and 52%
36 | ACACTTTTAGAGAGGA (sugars kdddddddddkekeke, PS) | 6%
37 | TGATAGCTGAGCTGAT (sugars kkddddddddddkeke, PS) | -17%

same assay, conditions: ASO, MM.1R, 2 µM

Row | Sequence | target mRNA inhibition
38 | CATTTACTGTTACCGA (sugars k3 d10 k3, PS) | 10%

same assay, conditions: ASO, MM.1R, 4 µM

Row | Sequence | target mRNA inhibition
39 | TCTGTATAGTTCTCAA (sugars k3 d10 k3, PS) | 69% and 71%
40 | TTTCATATTTGGAGCC (sugars k3 d10 k3, PS) | 45% and 60%
41 | TGGAGATACTTGTACT (sugars k3 d10 k3, PS) | 58%

same assay, conditions: ASO, SK-MEL-28, 4 µM

Row | Sequence | target mRNA inhibition
42 | AATGTCCACTGTTTTG (sugars k3 d10 k3, PS) | 47%
43 | CTCATAGGTGTACACG (sugars k3 d10 k3, PS) | 59%
44 | ATTTCACTGTAGGATT (sugars k3 d10 k3, PS) | 38%
45 | AACTGAGAGTGCGAGG (sugars k3 d10 k3, PS) | 1%
46 | GGCAGTGGAGCTCCAC (sugars k3 d10 k3, PS) | 73%
47 | ACAAGCTGGGCCTTGC (sugars k3 d10 k3, PS) | 27%
48 | CCGCAGAGAGCTAGCA (sugars k3 d10 k3, PS) | -6%
49 | AGCTTAGTCACCACGG (sugars k3 d10 k3, PS) | 67%
50 | CACGAGGCACCGCACT (sugars k3 d10 k3, PS) | -13%
51 | ACACTTTGTACGGGTC (sugars k3 d10 k3, PS) | 56%
52 | AACACTTGGAGAAGTC (sugars k3 d10 k3, PS) | 43%
53 | TTAGGAACGAAGAGCA (sugars k3 d10 k3, PS) | 32%
54 | TGGCACAGTCTTTTCG (sugars k3 d10 k3, PS) | 28%
55 | GTTGACAAATAAGGTA (sugars k3 d10 k3, PS) | 60%
56 | CACTTGTCTTGGGTGG (sugars k3 d10 k3, PS) | 45%
57 | GGCGGAGCTTCCCGTT (sugars k3 d10 k3, PS) | 26%
58 | TACCGCATTGCTAGAT (sugars k3 d10 k3, PS) | 23%
59 | GACTATTAGATAAGTA (sugars k3 d10 k3, PS) | 29%
60 | CCCAAAATACTTTGCA (sugars k3 d10 k3, PS) | 64%
61 | CATGATGTATACCAAC (sugars k3 d10 k3, PS) | 51%
62 | ACCCTCCCCAACTTAA (sugars k3 d10 k3, PS) | 10%
63 | TATCCATTAGAAAAGC (sugars k3 d10 k3, PS) | 63%
64 | GAAGTTTACACTGGAT (sugars k3 d10 k3, PS) | 65%
65 | GCTCAGAATGAAGTTA (sugars k3 d10 k3, PS) | 48%

Row | Sequence | target mRNA inhibition
66 | TCAAAAGGTAGTAGAC (sugars k3 d10 k3, PS) | 29%
67 | GCATAGAGCCCGTCGG (sugars k3 d10 k3, PS) | 50%
68 | CAGAAGATCTCTACTG (sugars k3 d10 k3, PS) | 12%
69 | CCAAGGATAACCTGAA (sugars k3 d10 k3, PS) | 44%
70 | CTGTAAGGGCTGCTCA (sugars k3 d10 k3, PS) | 56%
71 | CCTCTGAGCAGAACGA (sugars k3 d10 k3, PS) | 76%
72 | TTTCATATTTGGAGCC (sugars k3 d10 k3, PS) | 75%
73 | TAAGCAAGTGGAGGTC (sugars k3 d10 k3, PS) | 47%
74 | ATAAAGGACCCCGCCA (sugars k3 d10 k3, PS) | 18%
75 | TTTAAGTCATGTGTCA (sugars k3 d10 k3, PS) | 50%
76 | GAACGCACGGACGAAC (sugars k3 d10 k3, PS) | 18%
77 | CTTAAGCTAAACTCCT (sugars k3 d10 k3, PS) | 27%
78 | ACCAATTTATGCCATG (sugars k3 d10 k3, PS) | 17%
79 | ACCCATTTAATCTGTC (sugars k3 d10 k3, PS) | 57%
80 | AGCTTGCAGGTCTGGT (sugars k3 d10 k3, PS) | 53%
81 | GGTCAATTTTCACAGT (sugars k3 d10 k3, PS) | 64%
82 | CATTTACTGTTACCGA (sugars k3 d10 k3, PS) | 79%
83 | AGTGATGAGATATTCC (sugars k3 d10 k3, PS) | 59%
84 | TAACTGGCTTCCAGGA (sugars k3 d10 k3, PS) | 30%
85 | TCACTATTAAACAGCA (sugars k3 d10 k3, PS) | 16%
86 | GGTAAACTGCCTTAGG (sugars k3 d10 k3, PS) | 25%
87 | GCAAAAGAAACGAGTT (sugars k3 d10 k3, PS) | 8%
88 | GTAACTCAGGCACCAC (sugars k3 d10 k3, PS) | 47%
89 | AGGAACAATCCTGTAC (sugars k3 d10 k3, PS) | 16%
